Legend:
[1] = tested on: nutsedge, yellow; assay: Test C preemergence; type: in vivo, Cyperus esculentus; details: for Nutsedge, Yellow plant response rating / Plant response rating, Nutsedge, Yellow: preemergence; for Plant response rating, Nutsedge, Yellow: scale 0 to 100, 0 = no effect, 100 = complete control
How it was run: (§1)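 Seeds sown in loam–sand blend and treated preemergence with test chemicals in non-phytotoxic solvent with surfactant; postemergence plants in peat-based medium, treated at 2–18 cm (1- to 4-leaf stage). Greenhouse 13 to 15 days, then visual rating versus controls, 0 (no effect) to 100 (complete control).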

[2] = tested on: oilseed rape; assay: Test C postemergence; type: in vivo, Brassica napus; details: for Oilseed Rape plant response rating / Plant response rating, Oilseed Rape: postemergence; for Oilseed Rape plant response rating: 62 g ai/ha, scale 0 to 100
How it was run: as §1

[3] = tested on: soybean; assay: Test C postemergence; type: in vivo, Glycine max; details: for Plant response rating, Soybean / Soybean plant response rating: postemergence
How it was run: as §1

[4] = tested on: corn; assay: Test C postemergence; type: in vivo, Zea mays; details: for Plant response rating (scale of 0 to 100 where 0 is no effect and 100 is complete control), Corn: Postemergence, 31 g ai/ha, visually evaluated after 13 to 15 days; for Corn plant response rating / Plant response rating, Corn: postemergence; for Corn plant response rating: 62 g ai/ha, scale 0 to 100
How it was run: as §1

[5] = tested on: oilseed rape; assay: Test C preemergence; type: in vivo, Brassica napus; details: preemergence
How it was run: as §1

[6] = tested on: barnyardgrass; assay: Test A preemergence; type: in vivo, Echinochloa crus-galli
How it was run: (§2)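 Seeds were sown in a loam soil–sand blend and given a directed soil spray preemergence; postemergence plants at 2–10 cm, one- to two-leaf stage, were sprayed with compound in non-phytotoxic solvent with surfactant. After about 10 days in a greenhouse, injury was visually rated against untreated controls (0 = no effect, 100 = complete control).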

[7] = tested on: velvetleaf; assay: Test C preemergence; type: in vivo, Abutilon theophrasti; details: for Velvetleaf plant response rating / Plant response rating, Velvetleaf: preemergence; for Plant response rating, Velvetleaf: scale 0 to 100, 0 = no effect, 100 = complete control
How it was run: as §1

[8] = tested on: barnyardgrass; assay: Test A postemergence; type: in vivo, Echinochloa crus-galli
How it was run: as §2

[9] = tested on: soybean; assay: Test C preemergence; type: in vivo, Glycine max; details: for Soybean plant response rating / Plant response rating, Soybean: preemergence; for Plant response rating, Soybean: scale 0 to 100, 0 = no effect, 100 = complete control
How it was run: as §1

[10] = tested on: barnyardgrass; assay: Test C postemergence; type: in vivo, Echinochloa crus-galli; details: for Plant response rating (scale of 0 to 100 where 0 is no effect and 100 is complete control), Barnyardgrass: Postemergence, 31 g ai/ha, visually evaluated after 13 to 15 days; for Barnyardgrass plant response rating / Plant response rating, Barnyardgrass: postemergence; for Barnyardgrass plant response rating: 62 g ai/ha, scale 0 to 100
How it was run: as §1

[11] = tested on: velvetleaf; assay: Test C postemergence; type: in vivo, Abutilon theophrasti; details: for Plant response rating, Velvetleaf / Velvetleaf plant response rating: postemergence; for Velvetleaf plant response rating: scale 0 to 100
How it was run: as §1

[12] = tested on: wheat; assay: Test C postemergence; type: in vivo, Triticum aestivum; details: for Plant response rating, Wheat / Wheat plant response rating: postemergence; for Wheat plant response rating: scale 0 to 100
How it was run: as §1

[13] = tested on: pigweed; assay: Test A postemergence; type: in vivo, Amaranthus retroflexus
How it was run: as §2

[14] = tested on: crabgrass, large; assay: Test A preemergence; type: in vivo, Digitaria sanguinalis; details: 0 to 100 scale
How it was run: as §2

[15] = tested on: velvetleaf; assay: Test A preemergence; type: in vivo, Abutilon theophrasti; details: 0 to 100 scale
How it was run: as §2

[16] = tested on: crabgrass, large; assay: Test A postemergence; type: in vivo, Digitaria sanguinalis
How it was run: as §2

[17] = 31 g ai/ha, visual rating, scale 0 to 100 (0 no effect, 100 complete control), 13 to 15 days
[18] = 62 g ai/ha, scale 0 to 100 (0 no effect, 100 complete control), 13 to 15 days
[19] = 250 g ai/ha, scale 0 to 100, 0 is no effect, 100 is complete control
[20] = 250 g ai/ha, scale 0 to 100 (0 no effect, 100 complete control)
[21] = 125 g ai/ha, scale 0 to 100, 0 no effect, 100 complete control
[22] = Postemergence, 500 g ai/ha, 0 to 100 scale (0 no effect, 100 complete control)
[23] = postemergence, 125 g ai/ha, about 10 days, visual rating on 0 to 100 scale (0 no effect, 100 complete control)
[24] = Postemergence, 125 g ai/ha, 0 to 100 scale, 0 no effect, 100 complete control
[25] = 31 g ai/ha, scale 0 to 100 (0 no effect, 100 complete control), 13 to 15 days
[26] = 125 g ai/ha, scale 0 to 100, 0 is no effect, 100 is complete control
[27] = Postemergence, 31 g ai/ha, visually evaluated after 13 to 15 days
[28] = Preemergence, 500 g ai/ha, 0 no effect, 100 complete control
[29] = preemergence, 125 g ai/ha, visual injury, approx. 10 days
[30] = Postemergence, 500 g ai/ha, visual rating after approx. 10 days, 0 to 100 scale (0 no effect, 100 complete control)

## CCCc1cc(C(=O)NC2CC2)nn1Cc1ccnc(OC(F)F)c1 [Compound 205]
[1]; [17]
  Nutsedge, Yellow plant response rating: 40
[1]; [18]
  Nutsedge, Yellow plant response rating: 65
[1]; 125 g ai/ha, 13 to 15 days
  Plant response rating, Nutsedge, Yellow: 75
[1]; [19]
  Nutsedge, Yellow plant response rating: 90
[2]
  Oilseed Rape plant response rating: 25
[2]; [20]
  Plant response rating, Oilseed Rape: 50
[2]; [21]
  Plant response rating, Oilseed Rape: 50
[3]; [20]
  Plant response rating, Soybean: 90
[3]; [21]
  Soybean plant response rating: 70
[4]
  Plant response rating (scale of 0 to 100 where 0 is no effect and 100 is complete control), Corn: 10
  Corn plant response rating: 10
[4]; [20]
  Plant response rating, Corn: 40
[4]; [21]
  Plant response rating, Corn: 20
[5]; [17]
  Oilseed Rape plant response rating: 100
[5]; [18]
  Oilseed Rape plant response rating: 100
[5]; 125 g ai/ha, 13 to 15 days, scale 0 to 100, 0 = no effect, 100 = complete control
  Plant response rating, Oilseed Rape: 100
[5]; [19]
  Oilseed Rape plant response rating: 100
[6]; preemergence, 125 g ai/ha, visual injury approx. 10 days after treatment
  Barnyardgrass plant response rating (0 to 100 scale, 0 is no effect, 100 is complete control): 90
[6]; preemergence, 500 g ai/ha, visual injury after approx. 10 days, 0 to 100 scale (0 no effect, 100 complete control)
  Barnyardgrass plant response rating: 100
[7]; [17]
  Velvetleaf plant response rating: 55
[7]; [18]
  Velvetleaf plant response rating: 100
[7]; 125 g ai/ha, 13 to 15 days
  Plant response rating, Velvetleaf: 100
[7]; [19]
  Velvetleaf plant response rating: 100
[8]; [22]
  Barnyardgrass plant response rating: 90
[8]; [23]
  Barnyardgrass plant response rating: 80
[9]; [17]
  Soybean plant response rating: 80
[9]; [18]
  Soybean plant response rating: 85
[9]; 125 g ai/ha, 13 to 15 days
  Plant response rating, Soybean: 100
[9]; [19]
  Soybean plant response rating: 100
[10]
  Plant response rating (scale of 0 to 100 where 0 is no effect and 100 is complete control), Barnyardgrass: 10
  Barnyardgrass plant response rating: 10
[10]; [20]
  Plant response rating, Barnyardgrass: 50
[10]; [21]
  Plant response rating, Barnyardgrass: 15
[11]; [20]
  Plant response rating, Velvetleaf: 40
[11]
  Velvetleaf plant response rating: 40
[12]; [20]
  Plant response rating, Wheat: 5
[12]
  Wheat plant response rating: 5
[13]; [24]
  Pigweed plant response rating: 100
[13]; [22]
  Pigweed plant response rating: 100

## CCc1cc(C(=O)NC2CC2)nn1Cc1ccnc(C(F)(F)F)c1 [Compound 76]
[1]; Preemergence, 250 g ai/ha
  Plant response rating (scale of 0 to 100), Nutsedge, Yellow: 98
[1]; [25]
  Nutsedge, Yellow plant response rating: 40
[1]; 62 g ai/ha, 13 to 15 days
  Plant response rating, Nutsedge, Yellow: 70
[1]; [26]
  Nutsedge, Yellow plant response rating: 90
[2]; [27]
  Plant response rating (scale of 0 to 100 where 0 is no effect and 100 is complete control), Oilseed Rape: 30
[2]
  Oilseed Rape plant response rating: 35
[2]; [20]
  Plant response rating, Oilseed Rape: 60
[2]; [21]
  Plant response rating, Oilseed Rape: 55
[3]; [27]
  Plant response rating (scale of 0 to 100 where 0 is no effect and 100 is complete control), Soybean: 65
[3]; 62 g ai/ha, scale 0 to 100
  Soybean plant response rating: 75
[3]; [20]
  Plant response rating, Soybean: 98
[3]; [21]
  Plant response rating, Soybean: 95
[4]
  Plant response rating (scale of 0 to 100 where 0 is no effect and 100 is complete control), Corn: 5
  Corn plant response rating: 10
[4]; [21]
  Plant response rating, Corn: 20
[14]; [28]
  Crabgrass, Large plant response rating: 100
[14]; [29]
  Crabgrass, Large plant response rating: 90
[6]; Preemergence, 500 g ai/ha, 0 to 100 scale, 0 no effect, 100 complete control
  Barnyardgrass plant response rating: 100
[6]; preemergence, 125 g ai/ha, visual injury, 0 to 100 scale, approx. 10 days
  Barnyardgrass plant response rating: 80
[7]; Preemergence, 250 g ai/ha
  Plant response rating (scale of 0 to 100), Velvetleaf: 100
[7]; [25]
  Velvetleaf plant response rating: 75
[7]; 62 g ai/ha, 13 to 15 days
  Plant response rating, Velvetleaf: 85
[7]; [26]
  Velvetleaf plant response rating: 100
[8]; [24]
  Barnyardgrass plant response rating: 80
[8]; [30]
  Barnyardgrass plant response rating: 90
[15]; [28]
  Velvetleaf plant response rating: 60
[15]; [29]
  Velvetleaf plant response rating: 20
[16]; [30]
  Crabgrass, Large plant response rating: 100
[16]; [23]
  Crabgrass, Large plant response rating: 80
[9]; Preemergence, 250 g ai/ha
  Plant response rating (scale of 0 to 100), Soybean: 100
[9]; [25]
  Soybean plant response rating: 80
[9]; 62 g ai/ha, 13 to 15 days
  Plant response rating, Soybean: 98
[9]; [26]
  Soybean plant response rating: 98
[10]
  Plant response rating (scale of 0 to 100 where 0 is no effect and 100 is complete control), Barnyardgrass: 5
  Barnyardgrass plant response rating: 5
[10]; [20]
  Plant response rating, Barnyardgrass: 60
[10]; [21]
  Plant response rating, Barnyardgrass: 15
[11]; [27]
  Plant response rating (scale of 0 to 100 where 0 is no effect and 100 is complete control), Velvetleaf: 15
[11]; 62 g ai/ha
  Velvetleaf plant response rating: 40
[11]; [20]
  Plant response rating, Velvetleaf: 80
[11]; [21]
  Plant response rating, Velvetleaf: 60
[12]; [27]
  Plant response rating (scale of 0 to 100 where 0 is no effect and 100 is complete control), Wheat: 0
[12]; 62 g ai/ha
  Wheat plant response rating: 5
[12]; [20]
  Plant response rating, Wheat: 5
[12]; [21]
  Plant response rating, Wheat: 5
[13]; [30]
  Pigweed plant response rating: 100
[13]; [23]
  Pigweed plant response rating: 100
